Measurements published in patent US20060153936A1, “Flavonoid solubilizing agent and method of solubilizing flavonoid” (priority 2003, published 2006).
Read-outs that look alike come from different tables or passages of the source. Blank lines part the entries; values can stand above or below the compound they belong to.

Columns and labels:
[1] = Storage stability of baicalin supernatant at 10° C., visual examination (Example 1); assay type: physicochemical; settings: baicalin supernatant without additive, 95° C. 15 minutes, stored 10° C. one month
Procedure: Further, the supernatant was placed in a test tube and, after it was pasteurized by heating at 95° C. for 15 minutes, it was stored at 10° C. for one month to observe the formation of a precipitate by visual examination.

[2] = Baicalin dissolution amount with solubilizing agent (Example 1); assay type: physicochemical; settings: without additive; baicalin 100 mg in ultrapure water 10 mL; 80° C. one hour, equilibrated 10° C. 48 hours
Procedure: Then, after the mixture was equilibrated at 10° C. for 48 hours, the supernatant was collected by centrifugation. The OD254 of the supernatant was measured and the dissolution amount of baicalin was calculated by the following equation 1. baicalin dissolution amount (mg/100 mL)=(OD254 in sample supernatant−OD254 in control supernatant)/baicalin specific absorbance×1000

[3] = Storage stability of hesperidin supernatant at 10° C., visual examination (Example 3); assay type: physicochemical; settings: hesperidin supernatant without additive, 95° C. 15 minutes, stored 10° C. one month
Procedure: (§1) Further, the supernatant was placed in a test tube, and after it was pasteurized by heating at 95° C. for 15 minutes, it was stored at 10° C. for one month to observe the formation of a precipitate by visual examination.

[4] = Hesperidin dissolution amount with solubilizing agent (Example 3); assay type: physicochemical; settings: without additive; hesperidin 100 mg in ultrapure water 10 mL; 80° C. one hour, equilibrated 10° C. 48 hours
Procedure: Then, after it was equilibrated at 10° C. for 48 hours, the supernatant was collected by centrifugation. The OD254 of the supernatant was measured and a hesperidin dissolution amount was calculated by the following equation 3. hesperidin dissolution amount (mg/100 mL)=(OD254 in sample supernatant−OD254 in control supernatant)/hesperidin specific absorbance×1000

[5] = Isoflavone dissolution amount by HPLC with malonyl daidzin (Example 6); assay type: physicochemical; settings: for dissolution amount of malonyl daidzin itself: share of malonyl daidzin in the isoflavone amount of the supernatant, 10° C.
Procedure: (§2) Ultrapure water 1 mL was added to a commercially available soybean isoflavone (trade name “Honen Isoflavone-80”, manufactured by Honen Corporation) 12.5 mg (10 mg of isoflavone glycoside) and a commercially available malonyl isoflavone glycoside, malonyl daidzin (purity: 90% or more, manufactured by Wako Pure Chemicals, Co., Ltd.) 1 mg, and the mixture was stirred at 25° C. for one hour. Then, after it was equilibrated at 10° C. for 48 hours, the supernatant was collected by centrifugation and an isoflavone dissolution amount was measured by HPLC. Further, the supernatant was placed in a test tube, it was stored as such at 10° C. for one month to observe the formation of a precipitate by visual examination.

[6] = assay type: physicochemical
Procedure: as §2

[7] = Storage stability of naringin supernatant at 10° C., visual examination (Example 4); assay type: physicochemical; settings: naringin supernatant without additive, 95° C. 15 minutes, stored 10° C. one month
Procedure: as §1

[8] = Naringin dissolution amount with solubilizing agent (Example 4); assay type: physicochemical; settings: without additive; naringin 100 mg in ultrapure water 10 mL; 80° C. one hour, equilibrated 10° C. 48 hours
Procedure: Ultrapure water 10 mL was added to commercially available naringin (flavanones, purity: 95% or more, manufactured by Sigma Inc.) 100 mg and the same solubilizing agent as that used in Example 1, and the mixture was stirred at 80° C. for one hour. Then, after it was equilibrated at 10° C. for 48 hours, the supernatant was collected by centrifugation. The OD254 in the supernatant was measured and a naringin dissolution amount was calculated by the following equation 4. naringin dissolution amount (mg/100 mL)=(OD254 in sample supernatant−OD254 in control supernatant)/naringin specific absorbance×1000

[9] = Storage stability of rutin supernatant at 10° C., visual examination (Example 2); assay type: physicochemical; settings: rutin supernatant without additive, 95° C. 15 minutes, stored 10° C. one month
Procedure: Further, the supernatant was placed in a test tube, after it was pasteurized by heating at 95° C. for 15 minutes, it was stored at 10° C. for one month to observe the formation of a precipitate by visual examination.

SMILES: O=C(O)[C@H]1O[C@@H](Oc2cc3oc(-c4ccccc4)cc(=O)c3c(O)c2O)[C@H](O)[C@@H](O)[C@@H]1O [Baicalin, baicalin]
Storage stability (10° C.) [1]: precipitate | Baicalin dissolution amount [2]: 12.4 mg/100 mL

SMILES: COc1ccc([C@@H]2CC(=O)c3c(O)cc(O[C@@H]4O[C@H](CO[C@@H]5O[C@@H](C)[C@H](O)[C@@H](O)[C@H]5O)[C@@H](O)[C@H](O)[C@H]4O)cc3O2)cc1O [Hesperidin, hesperidin]
Storage stability (10° C.) [3]: precipitate | Hesperidin dissolution amount [4]: 8.6 mg/100 mL

Isoflavone amount ([5]; Honen Isoflavone-80 12.5 mg + malonyl daidzin 1 mg in ultrapure water 1 mL, 25° C. one hour, equilibrated 10° C. 48 hours, HPLC, total including malonyl daidzin): 106.3 mg/100 mL | solubilizing magnifying power of the isoflavone glycoside ([5]; in the co-presence of malonyl daidzin, malonyl daidzin's own amount deducted): 2.9 fold | dissolution amount of malonyl daidzin itself ([5]; HPLC): (including 56.9 of mg/100 mL | dissolution amount of malonyl daidzin itself ([5]; HPLC, listed as malonyl daidzin): 56.9 mg/100 mL | Storage stability (10° C.) [6]: No precipitate
SMILES: O=C(O)CC(=O)OC[C@H]1O[C@@H](Oc2ccc3c(=O)c(-c4ccc(O)cc4)coc3c2)[C@H](O)[C@@H](O)[C@@H]1O [Malonyl daidzin, malonyl daidzin]

Storage stability (10° C.) [7]: precipitate | Naringin dissolution amount [8]: 68.0 mg/100 mL
SMILES: C[C@@H]1O[C@@H](O[C@H]2[C@H](Oc3cc(O)c4c(c3)O[C@H](c3ccc(O)cc3)CC4=O)O[C@H](CO)[C@@H](O)[C@@H]2O)[C@H](O)[C@H](O)[C@H]1O [Naringin, naringin]

Storage stability (10° C.) [9]: precipitate
SMILES: C[C@@H]1O[C@@H](OC[C@H]2O[C@@H](Oc3c(-c4ccc(O)c(O)c4)oc4cc(O)cc(O)c4c3=O)[C@H](O)[C@@H](O)[C@@H]2O)[C@H](O)[C@H](O)[C@H]1O [Rutin, rutin]
